# Test results from patent US12606556B2, “TYK-2 inhibitor” (BEIGENE, LTD., priority 2020, dated 2026).
# Read-outs that look alike come from different tables or passages of the source.
# Tests used:
# [1] = target: T1, TYK2-JH2 (aa 575-869, in-house) protein (Homo sapiens, UniProt P29597); assay: TYK2-JH2 biochemical assay (HTRF, blocking of TYK2-JH2 protein with its probe); assay type: binding; conditions: for IC50: HTRF, 0.2 nM recombinant TYK2-JH2, Probe 1; for Biochemical assay Selectivity fold (TYK2/JAK1): TYK2-JH2 vs JAK1-JH2 biochemical IC50
# T1 construct: TYK2-JH2 (aa 575-869, in-house) protein; made in house
# T1 sequence (P29597 575-869): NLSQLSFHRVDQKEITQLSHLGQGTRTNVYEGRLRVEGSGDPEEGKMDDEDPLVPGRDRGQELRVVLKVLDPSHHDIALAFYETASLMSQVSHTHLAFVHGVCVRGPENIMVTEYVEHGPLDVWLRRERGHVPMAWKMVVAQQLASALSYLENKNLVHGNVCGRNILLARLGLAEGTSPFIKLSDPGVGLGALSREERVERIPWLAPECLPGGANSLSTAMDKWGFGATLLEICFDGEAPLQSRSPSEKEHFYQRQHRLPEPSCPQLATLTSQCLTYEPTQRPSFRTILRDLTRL
# Method in brief: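 Recombinant TYK2-JH2 (0.2 nM) pre-incubated with compounds (10 doses, 5-fold dilutions) 0.5 h at RT in HEPES pH 7.5 buffer with MgCl2, BSA, DTT, Brij-35; biotinylated probe (10 nM working solution, KD=10 nM) plus anti-6His Tb cryptate/streptavidin-XL665 added, 1 h RT. HTRF ratio read; IC50 from four-parameter logistic fit.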
# [2] = system: JAK1/p-STAT3(Tyr705) activated by IL-6 in TF-1 cell line; assay: IL-6-JAK1/p-STAT3(Tyr705) inhibition cellular assay; assay type: cell-based; conditions: Homo sapiens, read-out: Cellular assay pSTAT3/IL-6 IC50
# [3] = system: JAK2, TYK2/p-STAT4 (Tyr693) activated by IL-12 in NK-92 cell line; assay: IL-12-JAK2, TYK2/p-STAT4 (Tyr693) inhibition cellular assay; assay type: cell-based; conditions: for IC50: NK92, 0.5 h, read-out: Cellular assay pSTAT4/IL-12 IC50; for Cellular assay Selectivity fold (TYK2/JAK1): pSTAT4/IL-12 vs pSTAT3/IL-6 cellular IC50
# Method in brief: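 NK-92 cells were starved overnight without IL-2 and seeded at 5×10^4 per well in 1640 medium with 0.1% BSA. Lysate p-STAT4 (Tyr693) was measured by AlphaLISA SureFire, and IC50 was fitted with a 4-parameter logistic model.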
# [4] = target: T2, JAK1-JH2 protein (aa 561-860, in-house) (Homo sapiens, UniProt P23458); assay: JAK1-JH2 biochemical assay (HTRF, blocking of JAK1-JH2 protein with its probe); assay type: binding; conditions: 1.17 nM recombinant JAK1-JH2, Probe 2
# T2 construct: JAK1-JH2 protein (aa 561-860, in-house); made in house
# T2 sequence (P23458 561-860): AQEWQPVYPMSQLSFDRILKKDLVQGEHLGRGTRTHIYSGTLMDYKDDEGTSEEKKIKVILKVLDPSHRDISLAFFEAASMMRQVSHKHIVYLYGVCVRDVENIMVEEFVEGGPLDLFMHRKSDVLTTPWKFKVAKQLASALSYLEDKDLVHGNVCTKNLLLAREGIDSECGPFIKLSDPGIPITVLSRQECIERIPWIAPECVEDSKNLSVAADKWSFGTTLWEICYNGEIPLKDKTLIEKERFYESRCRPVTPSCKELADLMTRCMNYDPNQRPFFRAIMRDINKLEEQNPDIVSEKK
# Method in brief: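 HTRF probe-displacement assay using recombinant human JAK1 pseudokinase domain (aa 561-860, 1.17 nM in pre-incubation step), pre-incubated 0.5 h at room temperature with 10-dose 5-fold compound series. Buffer: 20 mM HEPES pH 7.5, 10 mM MgCl2, 0.005% BSA, 2 mM DTT, 0.015% Brij-35. IC50 by four-parameter logistic fit of 615/665 nm ratio.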
# [5] = 0.5 h, TF-1 cells, IL-6 50 ng/ml, 30 min
# [6] = NK-92 cells, IL-12 40 ng/ml, 30 min
Compound,IC50 [1],Biochemical assay Selectivity fold (TYK2/JAK1) [1],"IC50 [2, 5]","IC50 [3, 6]",IC50 [4],Cellular assay Selectivity fold (TYK2/JAK1) [3],"IC50 ([2]; TF-1, 0.5 h)",IC50 [3]
"CNC(=O)c1nnc(NC(=O)C2CC2)cc1Nc1nc2ccc(C3CN(C(C)=O)C3)cn2n1 [Example L2, 4-((6-(1-acetylazetidin-3-yl)-[1,2,4]triazolo[1,5-a]pyridin-2-yl)amino)-6-(cyclopropanecarboxamido)-N-methylpyridazine-3-carboxamide]",0.081 nM,32 fold,> 10000 nM,276 nM,2.6 nM,>36 fold,,
"CNC(=O)c1nnc(NC(=O)C2CC2)cc1Nc1nc2ccc(C3CN(C(=O)c4cccnc4)C3)cn2n1 [Example L3, 6-(cyclopropanecarboxamido)-N-methyl-4-((6-(1-nicotinoylazetidin-3-yl)-[1,2,4]triazolo[1,5-a]pyridin-2-yl)amino)pyridazine-3-carboxamide]",0.072 nM,21 fold,> 10000 nM,127 nM,1.5 nM,>79 fold,,
"CNC(=O)c1nnc(NC(=O)C2CC2)cc1Nc1nc2c(F)cc(N3CCC3)cn2n1 [Example N2, 4-((6-(azetidin-1-yl)-8-fluoro-[1,2,4]triazolo [1,5-a]pyridin-2-yl)amino)-6-(cyclopropanecarboxamido)-N-methylpyridazine-3-carboxamide]",0.063 nM,20 fold,9640 nM,14 nM,1.28 nM,688 fold,,
"CNC(=O)c1nnc(NC(=O)C2CC2)cc1Nc1nc2ccc(C(=O)N3CCC3)cn2n1 [Example O1, 4-((6-(azetidine-1-carbonyl)-[1,2,4]triazolo[1,5-a]pyridin-2-yl)amino)-6-(cyclopropanecarboxamido)-N-methylpyridazine-3-carboxamide]",0.17 nM,6 fold,,,1.06 nM,28 fold,4880 nM,169 nM
"CNC(=O)c1nnc(NC(=O)C2CC2)cc1Nc1nc2ccc(N3CC(C(=O)N4CCSC4)C3)cn2n1 [Example Q1, 6-(cyclopropanecarboxamido)-N-methyl-4-((6-(3-(thiazolidine-3-carbonyl)azetidin-1-yl)-[1,2,4]triazolo[1,5-a]pyridin-2-yl)amino)pyridazine-3-carboxamide]",0.16 nM,14 fold,> 10000 nM,157 nM,2.18 nM,>64 fold,,

# More lines, in order of falling IC50 [1], values ahead:
IC50 [1],Biochemical assay Selectivity fold (TYK2/JAK1) [1],"IC50 [2, 5]","IC50 [3, 6]",IC50 [4],Compound,Cellular assay Selectivity fold (TYK2/JAK1) [3],"IC50 ([2]; TF-1, 0.5 h)",IC50 [3]
0.87 nM,2 fold,> 10000 nM,687 nM,1.4 nM,"CNC(=O)c1nnc(NC(=O)C2CC2)cc1Nc1nc2c(OC)cc(N3CCC3)cn2n1 [Example N1, 4-((6-(azetidin-1-yl)-8-methoxy-[1,2,4]triazolo[1,5-a]pyridin-2-yl)amino)-6-(cyclopropanecarboxamido)-N-methylpyridazine-3-carboxamide]",>14 fold,,
0.26 nM,10 fold,> 10000 nM,63 nM,2.6 nM,"CNC(=O)c1nnc(NC(=O)C2CC2)cc1Nc1nc2ccc(C3CN(C)C3)cn2n1 [Example M1, 6-(cyclopropanecarboxamido)-N-methyl-4-((6-(1-methylazetidin-3-yl)-[1,2,4]triazolo[1,5-a]pyridin-2-yl)amino)pyridazine-3-carboxamide]",>158 fold,,
0.093 nM,40 fold,> 10000 nM,50.9 nM,3.7 nM,"CNC(=O)c1nnc(NC(=O)C2CC2)cc1Nc1nc2ccc(C3CN(S(C)(=O)=O)C3)cn2n1 [Example L1, 6-(cyclopropanecarboxamido)-N-methyl-4-((6-(1-(methylsulfonyl)azetidin-3-yl)-[1,2,4]triazolo[1,5-a]pyridin-2-yl)amino)pyridazine-3-carboxamide]",>196 fold,,
0.089 nM,17 fold,4100 nM,21 nM,1.47 nM,CNC(=O)c1nnc(NC(=O)C2CC2)cc1Nc1nc2c(C)cc(N3CCC3)cn2n1 [Example N3],192 fold,,
0.076 nM,22 fold,> 10000 nM,2000 nM,1.7 nM,"CNC(=O)c1nnc(NC(=O)C2CC2)cc1Nc1nc2ccc(C3CN(C(=O)c4ncn(C)n4)C3)cn2n1 [Example L5, 6-(cyclopropanecarboxamido)-N-methyl-4-((6-(1-(1-methyl-1H-1,2,4-triazole-3-carbonyl)azetidin-3-yl)-[1,2,4]triazolo[1,5-a]pyridin-2-yl)amino)pyridazine-3-carboxamide]",>5 fold,,
0.04 nM,38 fold,> 10000 nM,86 nM,1.5 nM,"CNC(=O)c1nnc(NC(=O)C2CC2)cc1Nc1nc2ccc(C3CN(C(=O)N4CCOCC4)C3)cn2n1 [Example L6, 6-(cyclopropanecarboxamido)-N-methyl-4-((6-(1-(morpholine-4-carbonyl)azetidin-3-yl)-[1,2,4]triazolo[1,5-a]pyridin-2-yl)amino)pyridazine-3-carboxamide]",>117 fold,,
0.039 nM,36 fold,> 10000 nM,29 nM,1.4 nM,"CNC(=O)c1nnc(NC(=O)C2CC2)cc1Nc1nc2ccc(N3CCC(C4CN(C)C4)CC3)cn2n1 [Example P1, 6-(cyclopropanecarboxamido)-N-methyl-4-((6-(4-(1-methylazetidin-3-yl)piperidin-1-yl)-[1,2,4]triazolo[1,5-a]pyridin-2-yl)amino)pyridazine-3-carboxamide]",>344 fold,,
